According to patent US20240002394A1, “DEUTERIUM-MODIFIED THIENOPYRIDONE COMPOUND” (Chia Tai Tianqing Pharmaceutical Group Co., Ltd., priority 2020, published 2024):

Legend:
[1] = In vitro liver microsomal stability (HLM); type: in vitro ADME, human
Procedure: (§1) Preparation of liver microsome incubated samples: PBS buffer (pH 7.4), liver microsome solutions (0.5 mg/mL; HLM and MLM, respectively), the test compounds and NADPH+MgCl2 solution were mixed and incubated at 37° C. at 300 rpm for 1 h. Preparation of zero-hour samples: PBS buffer (pH 7.4), liver microsome solutions (0.5 mg/mL; HLM and MLM, respectively) and the test compounds were mixed. An acetonitrile solution containing internal standard was added to the samples, and supernatants were prepared by protein precipitation, diluted and then analyzed by LC/MS/MS.

[2] = In vitro liver microsomal stability (MLM); type: in vitro ADME, mouse
Procedure: as §1

HPK1 = HPK1 (Homo sapiens (Human), UniProt Q92918); assay: Assay for in vitro inhibitory activity against HPK1 kinase; type: biochemical; conditions: ATP 0.1 mM; HTRF, STK Substrate 1-biotin; read-out: In vitro inhibitory activity against enzyme HPK1 IC50
Chain of HPK1 (Q92918 whole entry): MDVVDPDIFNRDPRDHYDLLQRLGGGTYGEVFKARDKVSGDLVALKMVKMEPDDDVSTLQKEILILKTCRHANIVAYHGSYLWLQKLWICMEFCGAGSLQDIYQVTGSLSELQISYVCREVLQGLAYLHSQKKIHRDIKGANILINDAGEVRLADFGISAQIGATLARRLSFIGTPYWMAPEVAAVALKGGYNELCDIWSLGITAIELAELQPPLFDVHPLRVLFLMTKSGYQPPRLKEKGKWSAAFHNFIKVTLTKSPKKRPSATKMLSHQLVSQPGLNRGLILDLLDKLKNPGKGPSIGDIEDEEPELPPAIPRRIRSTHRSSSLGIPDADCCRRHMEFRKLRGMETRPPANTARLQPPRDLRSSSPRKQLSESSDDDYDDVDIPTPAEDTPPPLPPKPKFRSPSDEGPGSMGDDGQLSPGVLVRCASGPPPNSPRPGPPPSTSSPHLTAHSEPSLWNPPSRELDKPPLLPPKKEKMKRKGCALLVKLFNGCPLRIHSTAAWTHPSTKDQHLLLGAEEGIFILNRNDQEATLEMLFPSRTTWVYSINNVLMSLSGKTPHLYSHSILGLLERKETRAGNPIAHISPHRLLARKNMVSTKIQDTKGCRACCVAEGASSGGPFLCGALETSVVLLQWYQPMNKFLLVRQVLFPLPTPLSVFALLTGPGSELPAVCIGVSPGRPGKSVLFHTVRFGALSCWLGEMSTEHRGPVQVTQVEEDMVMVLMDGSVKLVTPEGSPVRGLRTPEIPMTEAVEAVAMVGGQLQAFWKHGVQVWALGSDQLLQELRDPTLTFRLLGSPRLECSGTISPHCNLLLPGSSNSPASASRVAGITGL
Procedure: The kinase buffer (Enzymatic buffer 5×) was diluted to 1×, and 10 mM MgCl2, 1 mM DTT, and 0.005% Tween 20 were added. The 100 ng/μL HPK1 (Life technology) stock solution was diluted with the kinase buffer to obtain a 1.67×, 1.67 ng/μL working solution (final concentration: 1 ng/μL), and the working solution was seeded in a 384-well plate at 6 μL/well. Different compounds dissolved in DMSO were added to the wells using a nanoliter pipettor to final concentrations of 1000 nM to 0.244 nM (4-fold serial dilution, 7 concentrations in total), and blank control wells (without enzyme) and negative control wells (with enzyme, plus vehicle DMSO) were set; the wells were set in duplicate. After the enzyme and compounds were incubated at room temperature for 1 h, a 5×, 0.5 mM ATP dilution (final concentration: 0.1 mM) in the kinase buffer was mixed with a 5×, 2.5 μM substrate (Cisbio, STK Substrate 1-biotin; final concentration: 500 nM) in equal volume, and the mixture was added to each well at 4 μL/well. The plate was sealed with a film and then incubated at room temperature for 2 h. An assay antibody solution was prepared by mixing the antibody STK Antibody-cryptate (Cisbio, 5 μL/test) and a 4×, 500 nM Streptavidin-XL665 (Cisbio; final concentration: 125 nM) in equal volume and was added to each well at 10 μL/well, and the plate was incubated at room temperature for 1 h. The signal values ([…]) were measured using a PE Envision multi-functional microplate reader, and IC50 was calculated by four-parameter fitting.

[3] = system: Jurkat cell p-SLP76 phosphorylation; assay: Assay for Jurkat cell p-SLP76 phosphorylation inhibitory activity; type: cell-based; conditions: Homo sapiens, 0.5 h; Jurkat cells, CD3CD28 stimulation 30 min; read-out: Jurkat cell p-SLP76 phosphorylation inhibition IC50
Procedure: The Jurkat cells in a good growth state were added to a centrifuge tube, centrifuged, and resuspended. The cell density was adjusted to 6.25×10^6 cells/mL, and the cells were seeded in a 384-well small-volume white plate at 8 μL/well. Compounds were added in duplicate using a nanoliter pipettor to final concentrations of 2500 nM to 10.29 nM and a control was set. After 1 h of cell culture, the stimulator CD3CD28 (4 μL; manufacturer: Stemcell) was added and the cells were incubated at 37° C. for 30 min. 3 μL of lysis buffer (manufacturer: BioAuxilium) was added to each well, and the plate was shaken at room temperature for 30 min. After the lysate was well mixed, 5 μL of pre-mixed antibody (manufacturer: BioAuxilium) in assay buffer was added and the plate was incubated overnight at room temperature. The signal values were measured on a PerkinElmer Envision multi-functional microplate reader (excitation: 320 nm, emission: 615 nm/665 nm), and IC50 was calculated by four-parameter fitting.

[4] = HLM 0.5 mg/mL, 37° C., NADPH, 60 min
[5] = MLM 0.5 mg/mL, 37° C., NADPH, 60 min

SMILES: [2H]C1([2H])N(C)C([2H])([2H])C([2H])([2H])N(c2ccc3[nH]c(-c4c(N)c5ccsc5[nH]c4=O)nc3c2)C1([2H])[2H] [Example 2, 4-amino-5-(5-(4-methylpiperazin-1-yl-2,2,3,3,5,5,6,6-d8)-1H-benzo[d]imidazol-2-yl)thieno [2,3-b]pyridin-6(7H)-one]
- HLM (0.5 mg/mL) Remaining percentage (T = 60 min) [1, 4]: 89.66%
- MLM (0.5 mg/mL) Remaining percentage (T = 60 min) [2, 5]: 45.97%
- IC50 (HPK1): 9.7 nM

SMILES: [2H]C1([2H])CN(c2ccc3[nH]c(-c4c(N)c5ccsc5[nH]c4=O)nc3c2)CC([2H])([2H])N1C [Example 3, 4-amino-5-(5-(4-methylpiperazin-1-yl-3,3,5,5-d4)-1H-benzo[d]imidazol-2-yl)thieno[2,3-b]pyridin-6(7H)-one]
- HLM (0.5 mg/mL) Remaining percentage (T = 60 min) [1, 4]: 90.85%
- MLM (0.5 mg/mL) Remaining percentage (T = 60 min) [2, 5]: 45.47%
- IC50 (HPK1): 7.5 nM

SMILES: [2H]C1([2H])CN(C)CC([2H])([2H])N1c1ccc2[nH]c(-c3c(N)c4ccsc4[nH]c3=O)nc2c1 [Example 4, 4-amino-5-(5-(4-methylpiperazin-1-yl-2,2,6,6-d4)-1H-benzo[d]imidazol-2-yl)thieno[2,3-b]pyridin-6(7H)-one]
- HLM (0.5 mg/mL) Remaining percentage (T = 60 min) ([1]; human, microsomes, 1 h, pH 7.4): 88.50%
- MLM (0.5 mg/mL) Remaining percentage (T = 60 min) ([2]; mouse, microsomes, 1 h, pH 7.4): 42.58%
- IC50 (HPK1): 9.2 nM
- IC50 [3]: 83 nM

SMILES: [2H]c1cc2c(N)c(-c3nc4c([2H])c(N5CCN(C)CC5)c([2H])cc4[nH]3)c(=O)[nH]c2s1 [Example 5, 4-amino-5-(5-(4-methylpiperazin-1-yl)-1H-benzo[d]imidazol-2-yl-4,6-d2)thieno[2,3-b]pyridin-6(7H)-one-2-d]
- IC50 (HPK1): 8.8 nM
- IC50 [3]: 53 nM
